In general, Ki refers to a dissociation constant, usually derived from enzyme kinetics or from competition with a known ligand. The microsomal CLint is a measure of how fast metabolising enzymes remove a compound, apart from limits set by blood flow. As a reminder, the hepatocyte CLint is a measure of how fast metabolising enzymes remove a compound, apart from limits set by blood flow. A higher hepatocyte CLint goes with rapid turnover. Usually Papp A→B stands for the apparent permeability from the apical to the basolateral side of a cell layer. For orientation: half-life means how long it takes for the measured level to halve. A high value points to slow decline.

The results in this text go back to ChEMBL document CHEMBL1909511, “Inhalation by design: novel tertiary amine muscarinic M₃ receptor antagonists with slow off-rate binding kinetics for inhaled once-daily treatment of chronic obstructive pulmonary disease” (J Med Chem, 2011).

The target of series [1] is T1, Muscarinic acetylcholine receptor M3 (Homo sapiens, UniProt P20309). The series is described as follows: Displacement of [3H]-NMS from human recombinant M3 receptor expressed in CHO cells after 24 hrs by filter binding assay. The format is cell-based.
Target sequence in this assay (P20309 whole entry): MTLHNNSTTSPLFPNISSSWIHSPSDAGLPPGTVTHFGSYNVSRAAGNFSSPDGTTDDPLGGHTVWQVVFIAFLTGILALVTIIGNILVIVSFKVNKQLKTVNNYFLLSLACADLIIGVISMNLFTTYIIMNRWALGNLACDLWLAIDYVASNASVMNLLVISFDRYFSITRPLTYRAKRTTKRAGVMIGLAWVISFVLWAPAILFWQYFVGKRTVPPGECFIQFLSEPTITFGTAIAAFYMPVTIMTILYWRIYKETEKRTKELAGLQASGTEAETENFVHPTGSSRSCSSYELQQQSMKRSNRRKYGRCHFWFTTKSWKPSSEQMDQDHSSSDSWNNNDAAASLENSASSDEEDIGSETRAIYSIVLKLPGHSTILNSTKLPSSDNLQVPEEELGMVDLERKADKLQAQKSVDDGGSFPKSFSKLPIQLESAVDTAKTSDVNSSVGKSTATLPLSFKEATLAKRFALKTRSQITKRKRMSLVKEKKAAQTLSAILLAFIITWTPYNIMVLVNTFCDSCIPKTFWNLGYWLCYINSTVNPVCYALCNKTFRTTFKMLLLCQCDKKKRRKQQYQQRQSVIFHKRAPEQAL
Series [2] is described as follows: Intrinsic clearance in human liver microsomes assessed per mg of protein in presence of NADPH.
The nature of series [3]: Intrinsic clearance in human hepatocytes assessed per million cells.
The nature of series [4]: Intrinsic clearance in human liver microsomes assessed per mg of protein by glucuronidation assay in presence of Brijj-58 and UDPGA. In general terms: Liver microsomes are vesicles of endoplasmic reticulum, rich in cytochrome P450 enzymes.
The target of series [5] is T2, Muscarinic acetylcholine receptor M1 (Homo sapiens, UniProt P11229).
T2 sequence (P11229 whole entry): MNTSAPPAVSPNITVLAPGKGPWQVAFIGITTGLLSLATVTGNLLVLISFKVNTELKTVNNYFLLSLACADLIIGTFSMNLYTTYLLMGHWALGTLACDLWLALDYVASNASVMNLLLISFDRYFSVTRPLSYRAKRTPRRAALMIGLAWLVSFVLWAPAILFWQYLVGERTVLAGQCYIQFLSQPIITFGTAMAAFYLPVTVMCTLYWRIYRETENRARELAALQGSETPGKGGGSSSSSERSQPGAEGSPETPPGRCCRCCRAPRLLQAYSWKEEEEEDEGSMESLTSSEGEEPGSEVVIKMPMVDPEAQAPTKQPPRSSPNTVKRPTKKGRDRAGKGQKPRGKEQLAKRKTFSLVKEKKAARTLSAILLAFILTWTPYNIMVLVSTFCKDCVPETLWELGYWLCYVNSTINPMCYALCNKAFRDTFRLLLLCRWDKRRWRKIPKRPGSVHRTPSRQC
The experiment in a line: Displacement of [3H]-NMS from human recombinant M1 receptor expressed in CHO cells after 24 hrs by filter binding assay. It is filed as cell-based.

The target in series [6] is T3, Muscarinic acetylcholine receptor M1 (Homo sapiens) (UniProt P11229).
T3 sequence (whole entry): T2 sequence (P11229 whole entry)
The series is described as follows: Displacement of [3H]-NMS from human recombinant M1 receptor expressed in CHO cells assessed as dissociation half life at 100 fold human M1 receptor binding Ki concentration after 24 hrs by dilution-offset filter binding assay. It is filed as cell-based.

In series [7] the target is T4, Muscarinic acetylcholine receptor M2 (Homo sapiens, UniProt P08172).
T4 sequence (P08172 whole entry): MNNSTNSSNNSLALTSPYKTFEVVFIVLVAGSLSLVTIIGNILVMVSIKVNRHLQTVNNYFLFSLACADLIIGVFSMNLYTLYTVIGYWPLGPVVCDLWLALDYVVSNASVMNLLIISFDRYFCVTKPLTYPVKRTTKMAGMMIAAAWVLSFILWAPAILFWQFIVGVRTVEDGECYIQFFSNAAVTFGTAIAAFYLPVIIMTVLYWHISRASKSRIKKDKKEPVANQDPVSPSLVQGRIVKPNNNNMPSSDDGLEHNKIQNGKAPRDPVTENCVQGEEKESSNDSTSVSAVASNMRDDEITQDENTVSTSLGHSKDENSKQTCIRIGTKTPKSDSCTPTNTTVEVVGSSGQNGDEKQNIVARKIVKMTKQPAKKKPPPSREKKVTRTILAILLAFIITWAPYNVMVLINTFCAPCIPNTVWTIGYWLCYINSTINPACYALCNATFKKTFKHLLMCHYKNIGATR
The experiment in a line: Displacement of [3H]-NMS from human recombinant M2 receptor expressed in CHO cells after 24 hrs by filter binding assay. The format is cell-based.

The target in series [8] is T5, Muscarinic acetylcholine receptor M5 (Homo sapiens) (UniProt P08912).
T5 sequence (whole entry): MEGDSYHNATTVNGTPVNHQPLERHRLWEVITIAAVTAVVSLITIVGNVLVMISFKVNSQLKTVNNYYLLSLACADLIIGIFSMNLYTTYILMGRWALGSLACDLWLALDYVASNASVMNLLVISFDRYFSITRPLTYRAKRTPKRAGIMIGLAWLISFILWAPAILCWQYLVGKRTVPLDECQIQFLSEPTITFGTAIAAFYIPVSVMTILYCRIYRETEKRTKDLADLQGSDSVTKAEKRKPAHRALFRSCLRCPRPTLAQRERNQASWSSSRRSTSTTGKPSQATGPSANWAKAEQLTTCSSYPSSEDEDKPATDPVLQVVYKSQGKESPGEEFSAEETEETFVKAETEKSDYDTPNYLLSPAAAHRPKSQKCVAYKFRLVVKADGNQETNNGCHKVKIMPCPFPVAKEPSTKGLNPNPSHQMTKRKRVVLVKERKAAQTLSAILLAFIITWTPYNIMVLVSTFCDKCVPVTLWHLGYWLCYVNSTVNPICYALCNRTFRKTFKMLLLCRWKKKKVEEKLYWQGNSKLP
The experiment in a line: Displacement of [3H]-NMS from human recombinant M5 receptor expressed in CHO cells assessed as dissociation half life at 100 fold human M5 receptor binding Ki concentration after 24 hrs by dilution-offset filter binding assay. It is filed as cell-based.

For series [9], the system named is Canis familiaris. The experiment in a line: Bronchodilator activity in Beagle dog assessed as inhibition of methacholine-induced lung resistance after cumulative intratracheal administration in micelle solution at hourly intervals challenged each time 1 hr later with methacholine. It is filed as functional, Canis lupus familiaris.
The test system of series [10] is Canis familiaris. The series is described as follows: Toxicity in methacholine challenged Beagle dog assessed effect on heart rate at 3 ug intratracheally administered as single dose in micelle solution. The format is organism-based, Canis lupus familiaris. Conditions: in vivo, inhaled_or_intranasal.
The test system of series [11] is Canis familiaris. The series is described as follows: Toxicity in methacholine challenged Beagle dog assessed effect on heart rate at 10 ug intratracheally administered as single dose in micelle solution. It is filed as organism-based, Canis lupus familiaris. Conditions: in vivo, inhaled_or_intranasal.
Another series has as its system MDR1. The experiment in a line: Apparent permeability across apical to basal side in dog MDCK expressing MDR1. It is filed as ADME, cell-based, Canis lupus familiaris.
The next series relates to Rattus norvegicus. The series is described as follows: Unbound clearance in iv dosed rat. Conditions: in vivo. The format is ADME, organism-based.
Series [12] in a line: Half life in iv dosed rat. It is filed as ADME, organism-based. Conditions: in vivo.
Series [13] is described as follows: Plasma protein binding in iv dosed rat. The format is ADME, organism-based. Conditions: read-out: PPB (converted).
A further series relates to Oryctolagus cuniculus. The series is described as follows: Toxicity in rabbit lung cough model assessed as induction of cough production at 2000 ug administered intratracheally. Conditions: in vivo, inhaled_or_intranasal. It is filed as organism-based.
For series [14], the target named is T1, Muscarinic acetylcholine receptor M3. Conditions: CHO.
Target sequence in this assay (P20309 whole entry, looked up): as the sequence (P20309 whole entry) above
Series [15] shares this target.
Target sequence in this assay (P20309 whole entry, looked up): as the sequence (P20309 whole entry) above
Description: Displacement of radioligand from M3 receptor assessed as dissociation half life

Turning to `CC(C)(CCC(C(N)=O)(c1ccccc1)c1ccccc1)N1CC(Oc2cccc(O)c2)C1` [PF-03635659], the Ki was found to be 0.128 nM in [1], 0.115 nM in series [5] and 0.137 nM in series [7]. Also, the values for the microsomal CLint in [2] and in series [4] were greater than 282 µL/min/mg and 221 µL/min/mg, respectively. This compound returned a hepatocyte CLint in series [3] of 96 µL/min/1e6 cells. For the same compound, the T1/2 in series [6] is 14 h; in [8], greater than 16.7 h; in [14], greater than 24 h; in series [15], 83.3 h. For the same compound, the ID50 in the series with Canis familiaris [9] came to 3 µg. The figures for the Activity entry with Canis familiaris [10], with Canis familiaris [11] and with Oryctolagus cuniculus were “Non-toxic”, “Non-toxic” and “Toxic”, respectively. The Papp A→B in the series with MDR1 came to 7 ×10⁻⁶ cm/s. This compound also displayed a CL free in the series with Rattus norvegicus of 2065 mL/min/kg. Also, the half-life in [12] is 54 min. The fraction unbound in series [13] is 0.065.
